The numbers were not newly measured in patent EP0884997B1, “COMPOSITIONS CONTAINING AN ANTIFUNGAL AND A SULFUR COMPOUND” (JANSSEN PHARMACEUTICA N.V., priority 1996, dated 1997), which cites them from elsewhere.

For the data set the following is noted: prior art medicated shampoos, dandruff patients.

Take `CC(=O)N1CCN(c2ccc(OCC3COC(Cn4ccnc4)(c4ccc(Cl)cc4Cl)O3)cc2)CC1` (centres unmarked) [ketoconazole]: the “number of patients not responding to particular medicated shampoo” value is reported as “up to 30%”.

As to `S=[Se]=S` [selenium sulfide], the “number of patients not responding to particular medicated shampoo” value is “up to 40%”.
